Data published in patent US12441726B2, “Compounds and uses thereof” (Foghorn Therapeutics Inc., priority 2020, dated 2025).
pIC50: −log10 of the molar value.

Key:
BRM = BRM (Homo sapiens, UniProt P51531); assay: ATPase catalytic activity assay (ADP-Glo), BRM; conditions: 30 nM BRM, 400 μM ATP; for IC50: BRM ATPase: IC50 (uM)
Description: The ATPase catalytic activity of BRM or BRG-1 was measured by an in vitro biochemical assay using ADP-Glo™ (Promega, V9102). The ADP-Glo™ kinase assay is performed in two steps once the reaction is complete. The first step is to deplete any unconsumed ATP in the reaction. The second step is to convert the reaction product ADP to ATP, which will be utilized by the luciferase to generate luminesce and be detected by a luminescence reader, such as Envision.
Then following addition of 5 μL of ADP-Glo™ Reagent provided in the kit, the reaction incubates at room temperature for 40 minutes. Then 10 μL of Kinase Detection Reagent provided in the kit is added to convert ADP to ATP, and the reaction incubates at room temperature for 60 minutes. Finally, luminescence measurement is collected with a plate-reading luminometer, such as Envision.

BRG-1 = BRG-1 (Homo sapiens, UniProt P51532); assay: ATPase catalytic activity assay (ADP-Glo), BRG-1; conditions: for Emax: 1 h, read-out: BRG1 Max % Inhibition, ADP-Glo, 30 nM BRG-1, 400 μM ATP
BRG-1, sequence (P51532 whole entry): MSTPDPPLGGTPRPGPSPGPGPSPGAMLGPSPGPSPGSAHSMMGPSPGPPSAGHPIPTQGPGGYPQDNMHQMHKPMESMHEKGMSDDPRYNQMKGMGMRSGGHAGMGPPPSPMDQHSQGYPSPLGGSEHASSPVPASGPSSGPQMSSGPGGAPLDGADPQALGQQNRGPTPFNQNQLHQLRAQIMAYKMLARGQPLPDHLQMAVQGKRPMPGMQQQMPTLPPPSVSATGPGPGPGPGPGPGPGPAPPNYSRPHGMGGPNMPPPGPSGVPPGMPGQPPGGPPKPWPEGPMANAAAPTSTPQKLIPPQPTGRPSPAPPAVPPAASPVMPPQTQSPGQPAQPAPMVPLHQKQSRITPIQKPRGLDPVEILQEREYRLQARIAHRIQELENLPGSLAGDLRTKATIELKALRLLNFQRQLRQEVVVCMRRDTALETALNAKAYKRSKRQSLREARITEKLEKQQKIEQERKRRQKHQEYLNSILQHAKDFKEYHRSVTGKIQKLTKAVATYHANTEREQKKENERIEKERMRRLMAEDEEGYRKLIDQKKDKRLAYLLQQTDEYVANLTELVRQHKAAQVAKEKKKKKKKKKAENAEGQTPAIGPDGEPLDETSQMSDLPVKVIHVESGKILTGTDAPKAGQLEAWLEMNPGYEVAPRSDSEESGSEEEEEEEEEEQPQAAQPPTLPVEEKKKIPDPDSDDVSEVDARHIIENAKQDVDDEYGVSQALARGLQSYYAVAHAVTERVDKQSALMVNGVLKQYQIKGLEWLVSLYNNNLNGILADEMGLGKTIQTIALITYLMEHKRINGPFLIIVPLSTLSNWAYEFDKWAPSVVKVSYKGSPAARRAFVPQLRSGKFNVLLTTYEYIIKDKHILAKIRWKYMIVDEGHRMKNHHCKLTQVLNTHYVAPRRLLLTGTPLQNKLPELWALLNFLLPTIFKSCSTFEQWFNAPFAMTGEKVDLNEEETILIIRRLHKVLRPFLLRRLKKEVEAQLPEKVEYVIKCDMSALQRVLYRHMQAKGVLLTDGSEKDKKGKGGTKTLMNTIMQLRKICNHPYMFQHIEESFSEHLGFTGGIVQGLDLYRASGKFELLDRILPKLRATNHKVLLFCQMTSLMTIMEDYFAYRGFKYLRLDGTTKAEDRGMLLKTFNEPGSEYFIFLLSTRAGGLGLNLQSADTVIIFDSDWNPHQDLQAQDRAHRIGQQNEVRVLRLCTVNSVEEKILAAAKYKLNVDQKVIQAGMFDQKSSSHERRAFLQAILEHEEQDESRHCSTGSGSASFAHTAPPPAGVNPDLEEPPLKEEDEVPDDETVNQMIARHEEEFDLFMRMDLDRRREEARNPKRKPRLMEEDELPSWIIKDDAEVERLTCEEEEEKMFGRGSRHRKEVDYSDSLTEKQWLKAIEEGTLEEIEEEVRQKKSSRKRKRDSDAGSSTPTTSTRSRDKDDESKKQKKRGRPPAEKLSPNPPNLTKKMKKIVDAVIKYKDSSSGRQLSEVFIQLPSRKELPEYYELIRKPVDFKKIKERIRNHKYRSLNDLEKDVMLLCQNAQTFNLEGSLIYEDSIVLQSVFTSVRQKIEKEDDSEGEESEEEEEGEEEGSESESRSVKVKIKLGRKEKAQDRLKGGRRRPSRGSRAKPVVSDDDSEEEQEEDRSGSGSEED

BRM, sequence (P51531 whole entry): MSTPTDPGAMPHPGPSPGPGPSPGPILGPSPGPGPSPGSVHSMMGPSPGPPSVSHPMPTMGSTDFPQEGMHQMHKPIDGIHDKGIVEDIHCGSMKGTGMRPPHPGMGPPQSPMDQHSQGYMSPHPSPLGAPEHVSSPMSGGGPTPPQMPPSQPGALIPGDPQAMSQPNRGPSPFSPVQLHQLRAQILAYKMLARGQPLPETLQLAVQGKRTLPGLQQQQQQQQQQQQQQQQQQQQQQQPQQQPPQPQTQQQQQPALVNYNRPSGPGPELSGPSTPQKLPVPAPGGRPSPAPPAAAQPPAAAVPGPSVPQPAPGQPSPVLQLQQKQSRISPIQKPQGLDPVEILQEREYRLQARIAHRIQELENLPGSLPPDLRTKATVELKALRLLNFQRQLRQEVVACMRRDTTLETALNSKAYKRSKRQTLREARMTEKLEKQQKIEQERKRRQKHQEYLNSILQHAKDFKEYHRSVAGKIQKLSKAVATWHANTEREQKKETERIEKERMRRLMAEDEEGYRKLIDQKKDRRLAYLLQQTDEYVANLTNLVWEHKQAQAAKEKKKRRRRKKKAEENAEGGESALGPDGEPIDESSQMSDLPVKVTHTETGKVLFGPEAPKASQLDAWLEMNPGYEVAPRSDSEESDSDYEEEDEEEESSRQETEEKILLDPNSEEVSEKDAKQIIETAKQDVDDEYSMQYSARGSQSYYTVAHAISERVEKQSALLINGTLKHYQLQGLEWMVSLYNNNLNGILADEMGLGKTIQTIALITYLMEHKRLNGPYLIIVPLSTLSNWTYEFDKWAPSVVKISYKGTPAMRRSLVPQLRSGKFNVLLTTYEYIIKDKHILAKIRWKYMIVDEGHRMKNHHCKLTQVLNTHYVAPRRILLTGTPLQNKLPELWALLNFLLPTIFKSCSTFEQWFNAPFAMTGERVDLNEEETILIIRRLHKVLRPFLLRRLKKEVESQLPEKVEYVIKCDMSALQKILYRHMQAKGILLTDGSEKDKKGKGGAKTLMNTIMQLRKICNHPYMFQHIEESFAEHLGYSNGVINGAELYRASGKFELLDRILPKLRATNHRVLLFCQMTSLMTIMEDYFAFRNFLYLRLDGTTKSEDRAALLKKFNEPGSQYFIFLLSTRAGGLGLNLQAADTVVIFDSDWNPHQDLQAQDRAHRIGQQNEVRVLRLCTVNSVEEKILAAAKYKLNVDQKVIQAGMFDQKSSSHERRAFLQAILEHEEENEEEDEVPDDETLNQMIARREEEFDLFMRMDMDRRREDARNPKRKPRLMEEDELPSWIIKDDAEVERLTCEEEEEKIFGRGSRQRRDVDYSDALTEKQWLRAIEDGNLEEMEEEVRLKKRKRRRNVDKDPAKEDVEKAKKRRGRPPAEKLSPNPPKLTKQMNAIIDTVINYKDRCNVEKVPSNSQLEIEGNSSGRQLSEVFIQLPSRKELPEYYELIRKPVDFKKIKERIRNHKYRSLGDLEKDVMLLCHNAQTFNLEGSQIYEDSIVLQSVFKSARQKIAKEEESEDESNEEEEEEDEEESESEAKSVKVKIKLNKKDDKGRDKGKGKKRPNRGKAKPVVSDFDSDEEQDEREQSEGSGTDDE

CNC(=O)c1ccc(-c2ccc3cnc(CNC(=O)c4ccc5c(c4)[C@](C)(C#N)COC5)cc3n2)cc1 [Compound 324]
BRM Max % Inhibition (BRM): 105%
IC50 (BRM): 0.1 to 0.5 µM
pIC50 (BRG-1): 6.00 to 6.30
Emax (BRG-1): 81%

C[C@@]1(F)COCc2ccc(C(=O)NCc3cc4nc(-c5cncc(C6CC6)n5)ccc4cn3)cc21 [Compound 325]
BRM Max % Inhibition (BRM): 101%
IC50 (BRM): < 0.1 µM
pIC50 (BRG-1): 6.30 to 7.00
Emax (BRG-1): 90%

CN(C)c1nccc(N2CCc3cnc(CNC(=O)c4ccc5c(c4)[C@](C)(C#N)COC5)cc3C2)n1 [Compound 326]
BRM Max % Inhibition (BRM): 97%
IC50 (BRM): 0.1 to 0.5 µM
pIC50 (BRG-1): 6.00 to 6.30
Emax (BRG-1): 70%

C[C@@]1(C#N)COCc2ccc(C(=O)NCc3cc4c(cn3)CCN(c3ccnc(C5CC5)n3)C4)cc21 [Compound 327]
BRM Max % Inhibition (BRM): 89%
IC50 (BRM): 0.1 to 0.5 µM
pIC50 (BRG-1): < 6.00
Emax (BRG-1): 48%

C[C@@]1(C#N)COCc2ccc(C(=O)NCc3cc4c(cn3)CCN(c3cncc(C5CC5)n3)C4)cc21 [Compound 328]
BRM Max % Inhibition (BRM): 99%
IC50 (BRM): < 0.1 µM
pIC50 (BRG-1): 6.00 to 6.30
Emax (BRG-1): 81%

COc1nn(C)cc1-c1ccc2nnc(CNC(=O)c3ccc4c(c3)[C@](C)(C#N)COC4)cc2c1 [Compound 329]
BRM Max % Inhibition (BRM): 100%
IC50 (BRM): < 0.1 µM
pIC50 (BRG-1): 6.30 to 7.00
Emax (BRG-1): 86%

C[C@@]1(C#N)COCc2ccc(C(=O)NCc3cc4c(cn3)CCN(c3ccnc(N5CCOCC5)n3)C4)cc21 [Compound 330]
BRM Max % Inhibition (BRM): 93%
IC50 (BRM): 0.1 to 0.5 µM
pIC50 (BRG-1): 6.00 to 6.30
Emax (BRG-1): 64%

C[C@@]1(C#N)COCc2ccc(C(=O)NCc3cc4c(cn3)CCN(c3ccnc(N5CCCC5)n3)C4)cc21 [Compound 331]
BRM Max % Inhibition (BRM): 97%
IC50 (BRM): 0.1 to 0.5 µM
pIC50 (BRG-1): 6.00 to 6.30
Emax (BRG-1): 73%

C[C@@]1(C#N)COCc2ccc(C(=O)NCc3cc4c(cn3)CCN(c3ccnc(N5CCC5)n3)C4)cc21 [Compound 332]
BRM Max % Inhibition (BRM): 96%
IC50 (BRM): 0.1 to 0.5 µM
pIC50 (BRG-1): 6.00 to 6.30
Emax (BRG-1): 67%

COc1nn(C)cc1-c1ccc2cnc(CNC(=O)c3cc(F)c4c(c3)[C@](C)(F)COC4)cc2n1 [Compound 333]
BRM Max % Inhibition (BRM): 100%
IC50 (BRM): < 0.1 µM
pIC50 (BRG-1): 6.00 to 6.30
Emax (BRG-1): 79%

COc1nn(C)cc1-c1ccc2cnc(CNC(=O)c3cnc4c(c3)[C@](C)(F)COC4)cc2n1 [Compound 334]
BRM Max % Inhibition (BRM): 96%
IC50 (BRM): 0.1 to 0.5 µM
pIC50 (BRG-1): 6.00 to 6.30
Emax (BRG-1): 61%

C[C@@]1(C#N)COCc2ccc(C(=O)NCc3cc4cc(-c5nccc(N6CCC6)n5)ccc4nn3)cc21 [Compound 335]
BRM Max % Inhibition (BRM): 101%
IC50 (BRM): < 0.1 µM
pIC50 (BRG-1): 6.30 to 7.00
Emax (BRG-1): 84%

C[C@@]1(C#N)COCc2ccc(C(=O)NCc3cc4cc(-c5ccnc(N6CCC6)n5)ccc4nn3)cc21 [Compound 336]
BRM Max % Inhibition (BRM): 99%
IC50 (BRM): < 0.1 µM
pIC50 (BRG-1): 6.30 to 7.00
Emax (BRG-1): 92%

C[C@@]1(C#N)COCc2ccc(C(=O)NCc3cc4cc(-c5ccnc(C6CC6)n5)cnc4cn3)cc21 [Compound 337]
BRM Max % Inhibition (BRM): 99%
IC50 (BRM): 0.1 to 0.5 µM
pIC50 (BRG-1): 6.00 to 6.30
Emax (BRG-1): 63%

COc1nn(C)cc1-c1cnc2cnc(CNC(=O)c3ccc4c(c3)[C@](C)(F)COC4)cc2c1 [Compound 338]
BRM Max % Inhibition (BRM): 97%
IC50 (BRM): 0.1 to 0.5 µM
pIC50 (BRG-1): 6.00 to 6.30
Emax (BRG-1): 56%

CO[C@H]1CCN(c2nccc(-c3ccc4cnc(CNC(=O)c5ccc6c(c5)[C@](C)(C#N)COC6)cc4n3)n2)C1 [Compound 339]
BRM Max % Inhibition (BRM): 100%
IC50 (BRM): < 0.1 µM
pIC50 (BRG-1): 6.30 to 7.00
Emax (BRG-1): 95%

C[C@@]1(C#N)COCc2ccc(C(=O)NCc3cc4nc(-c5ccnc(N6C[C@@H]7C[C@H]6CO7)n5)ccc4cn3)cc21 [Compound 340]
BRM Max % Inhibition (BRM): 99%
IC50 (BRM): < 0.1 µM
pIC50 (BRG-1): 6.30 to 7.00
Emax (BRG-1): 91%

C[C@@]1(C#N)COCc2ccc(C(=O)NCc3cc4nc(-c5ccnc(N6CC[C@H](F)C6)n5)ccc4cn3)cc21 [Compound 341]
BRM Max % Inhibition (BRM): 100%
IC50 (BRM): < 0.1 µM
pIC50 (BRG-1): 6.30 to 7.00
Emax (BRG-1): 93%

C[C@@]1(C#N)COCc2ccc(C(=O)NCc3cc4cc(-c5cncc(C6CC6)n5)cnc4cn3)cc21 [Compound 342]
BRM Max % Inhibition (BRM): 97%
IC50 (BRM): < 0.1 µM
pIC50 (BRG-1): 6.00 to 6.30
Emax (BRG-1): 80%

COc1nn(C)cc1-c1ccc2cnc(CNC(=O)c3ccc4c(c3)[C@](C)(F)COC4)cc2n1 [Compound 343]
BRM Max % Inhibition (BRM): 101%
IC50 (BRM): < 0.1 µM
pIC50 (BRG-1): 6.00 to 6.30
Emax (BRG-1): 78%

COc1cncc(-c2nc3cc(CNC(=O)c4ccc5c(c4)[C@](C)(C#N)COC5)ncc3s2)n1 [Compound 344]
BRM Max % Inhibition (BRM): 94%
IC50 (BRM): 0.1 to 0.5 µM
pIC50 (BRG-1): 6.00 to 6.30
Emax (BRG-1): 57%

COC(=O)N1CCC=C(c2ccc3cnc(CNC(=O)c4ccc5c(c4)[C@](C)(F)COC5)cc3n2)C1 [Compound 345]
BRM Max % Inhibition (BRM): 81%
IC50 (BRM): 0.1 to 0.5 µM
pIC50 (BRG-1): < 6.00
Emax (BRG-1): 25%

Cn1ccc2ncc(-c3ccc4cnc(CNC(=O)c5ccc6c(c5)[C@](C)(C#N)COC6)cc4n3)nc21 [Compound 346]
BRM Max % Inhibition (BRM): 102%
IC50 (BRM): < 0.1 µM
pIC50 (BRG-1): > 7.00
Emax (BRG-1): 94%

C[C@@]1(F)COCc2ccc(C(=O)NCc3cc4cc(-c5cccc(N6CCC6)n5)cnc4cn3)cc21 [Compound 347]
BRM Max % Inhibition (BRM): 100%
IC50 (BRM): < 0.1 µM
pIC50 (BRG-1): 6.30 to 7.00
Emax (BRG-1): 79%

C[C@@]1(C#N)COCc2ccc(C(=O)NCc3cc4nc(-c5ccnc(N6CCC6)n5)sc4cn3)cc21 [Compound 348]
BRM Max % Inhibition (BRM): 99%
IC50 (BRM): < 0.1 µM
pIC50 (BRG-1): 6.00 to 6.30
Emax (BRG-1): 72%

COc1cncc(-c2ccc3nnc(CNC(=O)c4ccc5c(c4)[C@](C)(C#N)COC5)cc3c2)n1 [Compound 349]
BRM Max % Inhibition (BRM): 100%
IC50 (BRM): < 0.1 µM
pIC50 (BRG-1): 6.30 to 7.00
Emax (BRG-1): 87%

C[C@@]1(C#N)COCc2ccc(C(=O)NCc3cc4nc(N5CCCN(C6CCC6)C5=O)ccc4cn3)cc21 [Compound 350]
BRM Max % Inhibition (BRM): 96%
IC50 (BRM): 0.1 to 0.5 µM
pIC50 (BRG-1): < 6.00
Emax (BRG-1): 54%

C[C@@]1(C#N)COCc2ccc(C(=O)NCc3cc4cc(-c5cccc(N6CCC6)n5)ccc4nn3)cc21 [Compound 351]
BRM Max % Inhibition (BRM): 101%
IC50 (BRM): < 0.1 µM
pIC50 (BRG-1): 6.30 to 7.00
Emax (BRG-1): 95%

O=C(NCc1cc2nc(-c3cncc(N4CCC4)n3)ccc2cn1)c1cc(F)c2c(c1)[C@@](F)(C(F)F)COC2 [Compound 352]
BRM Max % Inhibition (BRM): 99%
IC50 (BRM): < 0.1 µM
pIC50 (BRG-1): 6.30 to 7.00
Emax (BRG-1): 89%

C[C@@]1(C#N)COCc2ccc(C(=O)NCc3cc4nc(-c5cncc(N6CCC6)n5)sc4cn3)cc21 [Compound 353]
BRM Max % Inhibition (BRM): 93%
IC50 (BRM): < 0.1 µM
pIC50 (BRG-1): 6.30 to 7.00
Emax (BRG-1): 82%

COc1ncccc1-c1nc2cc(CNC(=O)c3ccc4c(c3)[C@](C)(C#N)COC4)ncc2s1 [Compound 354]
BRM Max % Inhibition (BRM): 79%
IC50 (BRM): 0.1 to 0.5 µM
pIC50 (BRG-1): < 6.00
Emax (BRG-1): 39%

C[C@@]1(C#N)COCc2ccc(C(=O)NCc3cc4nc(-c5cncc(C(F)F)n5)ccc4cn3)cc21 [Compound 355]
BRM Max % Inhibition (BRM): 93%
IC50 (BRM): 0.1 to 0.5 µM
pIC50 (BRG-1): 6.00 to 6.30
Emax (BRG-1): 74%

C[C@@]1(C#N)COCc2ccc(C(=O)NCc3cc4cc(-c5cncc(N6CCC6)n5)ccc4nn3)cc21 [Compound 356]
BRM Max % Inhibition (BRM): 97%
IC50 (BRM): < 0.1 µM
pIC50 (BRG-1): 6.30 to 7.00
Emax (BRG-1): 95%

COc1ncccc1-c1ccc2nnc(CNC(=O)c3ccc4c(c3)[C@](C)(C#N)COC4)cc2c1 [Compound 357]
BRM Max % Inhibition (BRM): 97%
IC50 (BRM): < 0.1 µM
pIC50 (BRG-1): 6.30 to 7.00
Emax (BRG-1): 87%

C[C@@]1(C#N)COCc2ccc(C(=O)NCc3cc4nc(-c5ccnc(C(F)F)n5)ccc4cn3)cc21 [Compound 358]
BRM Max % Inhibition (BRM): 92%
IC50 (BRM): 0.1 to 0.5 µM
pIC50 (BRG-1): 6.00 to 6.30
Emax (BRG-1): 67%

CN1CC(c2cccc(-c3ccc4cnc(CNC(=O)c5ccc6c(c5)[C@](C)(C#N)COC6)cc4n3)n2)C1 [Compound 359]
BRM Max % Inhibition (BRM): 89%
IC50 (BRM): 0.1 to 0.5 µM
pIC50 (BRG-1): < 6.00
Emax (BRG-1): 39%

CN(C)c1cccc(-c2ccc3cnc(CNC(=O)c4ccc5c(c4)[C@](C)(C#N)COC5)cc3n2)n1 [Compound 360]
BRM Max % Inhibition (BRM): 99%
IC50 (BRM): < 0.1 µM
pIC50 (BRG-1): < 6.00
Emax (BRG-1): 99%

C[C@@]1(C#N)COCc2ccc(C(=O)NCc3cc4nc(-c5cccc(N6CCCC6)n5)ccc4cn3)cc21 [Compound 361]
BRM Max % Inhibition (BRM): 98%
IC50 (BRM): < 0.1 µM
pIC50 (BRG-1): < 6.00
Emax (BRG-1): 98%

C[C@@H]1CN(c2nccc(-c3ccc4cnc(CNC(=O)c5ccc6c(c5)[C@](C)(C#N)COC6)cc4n3)n2)CCO1 [Compound 362]
BRM Max % Inhibition (BRM): 99%
IC50 (BRM): < 0.1 µM
pIC50 (BRG-1): < 6.00
Emax (BRG-1): 98%

C[C@@H]1COCCN1c1nccc(-c2ccc3cnc(CNC(=O)c4ccc5c(c4)[C@](C)(C#N)COC5)cc3n2)n1 [Compound 363]
BRM Max % Inhibition (BRM): 98%
IC50 (BRM): < 0.1 µM
pIC50 (BRG-1): 6.30 to 7.00
Emax (BRG-1): 94%

Cn1cc(-c2ccc3cnc(CNC(=O)c4ccc5c(c4)[C@](C)(C#N)COC5)cc3n2)c(F)n1 [Compound 364]
BRM Max % Inhibition (BRM): 90%
IC50 (BRM): 0.1 to 0.5 µM
pIC50 (BRG-1): 6.00 to 6.30
Emax (BRG-1): 62%

C[C@@]1(C#N)COCc2ccc(C(=O)NCc3cc4cc(-c5nccc(N6CCC6)n5)ccc4cn3)cc21 [Compound 365]
BRM Max % Inhibition (BRM): 99%
IC50 (BRM): < 0.1 µM
pIC50 (BRG-1): 6.30 to 7.00
Emax (BRG-1): 98%

CO[C@@H]1CCN(c2cncc(-c3ccc4cnc(CNC(=O)c5ccc6c(c5)[C@](C)(C#N)COC6)cc4c3)n2)C1 [Compound 366]
BRM Max % Inhibition (BRM): 99%
IC50 (BRM): < 0.1 µM
pIC50 (BRG-1): > 7.00
Emax (BRG-1): 99%
